Experimental data: patent US11985994B2, “Sweetener and flavor compositions, methods of making and methods of use thereof” (EPC Natural Products Co., Ltd., priority 2018, dated 2024)
One block for each compound: values may come before it.

Assay: Sensory evaluation (smell, color, taste) of Maillard reaction samples, Examples 52, 55-63
Parameters: species or system human
Method: For evaluation of the taste profile, the samples were tested by a panel of four people. 1 trained taster tasted independently the samples first. The taster was asked to describe the taste profile and score 0-5 according to the increasing sugar likeness, bitterness, aftertaste and lingering taste profiles. The first taster was allowed to re-taste, and then make notes for the sensory attributes perceived. Afterwards, another 3 tasters tasted and the attributes were noted and discussed openly to find a suitable description. In case that more than 1 taster disagreed with the results, the tasting was repeated. In some sensory test results (above), the taste rating was expressed by “+”, which means the intensity of the factors is shown by three levels. “+” for slight, “++” for moderate and “+++” for very strong.
All samples were assessed at 22° C. after the Maillard reaction was stopped by placing the sealed vials in an ice bath. After 20 minutes in the ice bath the sealed vials were put in a water bath set to 22° C.
The odor/smell was assessed independently by 3 persons; the final description was agreed after discussion. […] The taste was assessed independently by 3 persons either in the original samples or after appropriate dilution to achieve relevant concentrations of sugars and steviol-glycosides (i.e. 5-9% SE); the final description was agreed after discussion.

[1] = negative controls (no carbohydrate source), 10 ml glycerin/water, 100 °C, 40 minutes
[2] = Table 52.2: 1 ml water + 9 ml Glycerin, 0.67 h, 100 °C
[3] = Table 52.3: 1 ml water + 9 ml Glycerin, 0.67 h, 100 °C
[4] = 1 ml water + 9 ml Glycerin, 2.0 h, 120 °C
[5] = 1 ml water + 9 ml Glycerin, 1 h, 100 °C

SMILES: NCCCC[C@H](N)C(=O)O [14.7 mg Lys, Lysine]
Color [1]: brown | Smell [1]: Popcorn | Taste [1]: Slightly sweet

SMILES: N[C@@H](Cc1ccccc1)C(=O)O [3.3 mMol Phe, Phenylalanine]
Color (Glycerin 10 ml, 100 °C, 5 min): No color | Smell (Glycerin 10 ml, 100 °C, 5 min): Slightly bloomy | Color (Glycerin 10 ml, 100 °C, 10 min): No color | Smell (Glycerin 10 ml, 100 °C, 10 min): flowery/bloomy | Color (Glycerin 10 ml, 100 °C, 20 min): Slightly Yellow | Smell (Glycerin 10 ml, 100 °C, 20 min): flowery/bloomy | Color (Glycerin 10 ml, 100 °C, 40 min): Yellow-slightly | Smell (Glycerin 10 ml, 100 °C, 40 min): flowery/bloomy | Color (Glycerin 10 ml, 1 h, 120 °C): Brown | Smell (Glycerin 10 ml, 1 h, 120 °C): flowery/bloomy

SMILES: O=C[C@H](O)[C@@H](O)[C@H](O)CO [10 mmol Xyl, Xylose]
Color (Glycerin 10 ml, 100 °C, 40 min): Slightly Yellow | Smell (Glycerin 10 ml, 100 °C, 40 min): Slightly Popcorn | Color (Glycerin 10 ml, 1 h, 120 °C): No color | Smell (Glycerin 10 ml, 1 h, 120 °C): neutral

SMILES: C=C1C[C@@]23CC[C@H]4[C@@](C)(CCC[C@@]4(C)C(=O)O[C@@H]4O[C@H](CO)[C@@H](O)[C@H](O)[C@H]4O)[C@@H]2CC[C@]1(O[C@@H]1O[C@H](CO)[C@@H](O)[C@H](O[C@@H]2O[C@H](CO)[C@@H](O)[C@H](O)[C@H]2O)[C@H]1O[C@@H]1O[C@H](CO)[C@@H](O)[C@H](O)[C@H]1O)C3 [0.05 mMol Reb-A, Rebaudioside A]
Color [2]: Slightly Yellow

SMILES: NCCCC[C@H](N)C(=O)O [0.1 mMol Lys, Lysine]
Color [3]: Brown | Smell [3]: Popcorn | Taste [3]: Sweet

SMILES: O=C[C@H](O)[C@@H](O)[C@H](O)[C@H](O)C(=O)O [0.1 mMol Gluc Acid, Glucuronic Acid]
Color [4]: Almost black | Intensity of Smell [4]: +++ | Smell [4]: burnt bread | Taste [4]: Bitter

SMILES: C[C@H](N)C(=O)O [0.1 mMol Ala, Alanine]
Color [2]: No Color

SMILES: N[C@@H](Cc1ccccc1)C(=O)O [0.1 mMol Phe, Phenylalanine]
Color [4]: Slightly Yellow | Intensity of Smell [4]: + | Smell [4]: Caramel, burnt | Taste [4]: sweet | Color [2]: Slightly Yellow | Smell [2]: flowery/bloomy, | Taste [2]: sweet

SMILES: C[C@H](N)C(=O)O [8.91 mg Ala, Alanine]
Color [1]: No color | Smell [1]: Neutral, slightly Agar | Taste [1]: Slightly sweet

SMILES: N[C@@H](CO)C(=O)O [10.5 mg Ser, Serine]
Color [1]: Slightly Yellow | Smell [1]: Lotus flower | Taste [1]: Slightly sweet

SMILES: N[C@@H](Cc1ccccc1)C(=O)O [Phe 60 mMol, Phenylalanine]
Color [5]: Slightly Yellow | Smell [5]: flowery/bloomy-caramel | Taste [5]: Sweet

SMILES: N[C@@H](Cc1c[nH]c2ccccc12)C(=O)O [20.42 mg Try, Tryptophan]
Color [1]: Slightly Yellow | Smell [1]: Unpleasant (fecal) | Taste [1]: Slightly sweet

The next lines start with results.

Color [1]: Slightly Yellow
SMILES: N[C@@H](CS)C(=O)O [12.1 mg Cys, Cysteine]
Smell [1]: Unpleasant (sulfur) | Taste [1]: Slightly sweet

Color [1]: Very Slightly
SMILES: C[C@@H](O)[C@H](N)C(=O)O [11.91 mg Thr, Threonine]
Smell [1]: Vanilla, butter | Taste [1]: Slightly sweet

Color [1]: No color
SMILES: CC[C@H](C)[C@H](N)C(=O)O [13.11 mg Ile, Isoleucine]
Smell [1]: Coffee | Taste [1]: Slightly sweet

Color [1]: Very Slightly
SMILES: CSCC[C@H](N)C(=O)O [14.9 mg Met, Methionine]
Smell [1]: Sulfuric | Taste [1]: Slightly sweet

Color [5]: No color
SMILES: O=C[C@H](O)[C@@H](O)[C@H](O)CO [167 mMol Xyl, Xylose]
Smell [5]: neutral/meat | Taste [5]: Sweet

Color [1]: No color
SMILES: N[C@@H](Cc1ccc(O)cc1)C(=O)O [18.1 mg Tyr, Tyrosine]
Smell [1]: neutral | Taste [1]: Slightly sweet

Color [1]: Slightly Yellow
SMILES: O=C(O)[C@@H]1CCCN1 [11.5 mg Pro, Proline]
Smell [1]: Neutral, slightly | Taste [1]: Slightly sweet
